Measurements from patent publication US20050244490A1, “Dosing methods for beta-D-2',3'-dideoxy-2',3'-didehydro-5-fluorocytidine antiviral therapy” (priority 2003, published 2005).
Where “and” joins values, the source holds several entries; their conditions need not be identical. Identical values can stand only once.

Columns and labels:
[1] = test system: AZT/3TC-resistant HIV-1 recombinant viruses; assay: microbe, parasite or virus in culture; assay type: cell-based
Protocol: A panel of 22 viruses was constructed in the HXB2 background using the Protease and RT sequences from clinical isolates to determine Virco Profiling against recombinant clinical isolates (see FIGS. 7a and 7b). Viruses contained 2 to 17 mutations in RT frequently associated with nucleoside resistance, including: M184V, M41L, D67N, T215Y. IC50 values were determined using a high through-put reporter virus assay.

clinical [2] = conditions: in vivo; for CL renal: CLr; for CL/F: CLtot/F
Protocol: Total of 18 HIV-1 infected males, aged 18-55 years, enrolled, 6 per treatment cohort.
In Cohort 3, subjects received either 100 mg, or 200 mg, or placebo.
The data was analyzed using non-compartmental and two-compartmental models.
HIV RNA levels were also determined using quantitative real-time RT-PCR.
Plasma HIV-1 RNA levels were measured by quantitative reverse transcriptase-polymerase chain reaction (Q-RT-PCR) essentially as described by Stuyver, L. J. et al., “Antiviral activity and cellular toxicity of modified 2′,3′-dideoxy-2′,3′-didehydrocytidine analogues” Antimicrob Agents Chemother.

wild type HIV-RT = molecular target: T1, wild type HIV-RT (Human immunodeficiency virus type 1 group M subtype B, UniProt P04585); assay: Ki / Km for wild type HIV-RT; assay type: biochemical, HIV-1
T1 construct: The Ki value for β-D-D4FC-TP for wild type HIV-RT

clinical [3] = conditions: in vivo
wild type HIV-1 = conditions: read-out: in vitro EC90 for wild type virus; cited from earlier work
HepG2 cells = assay: Mitochondrial toxicity testing (mitDNA, rRNA, lactic acid); assay type: cell-based; conditions: 14 days; for % Change in Lactic Acid: normalized for cytotoxicity
Protocol: HepG2 cells were incubated for 14 days with the active agent. and mitDNA and rRNA levels were determined by quantitative real-time PCR. The results are tabulated in […]

[4] = Food effect, fed versus fasted crossover (Cohort 4); conditions: for AUC / AUC(0-inf) / CL/F / Cmax / half-life / Tmax: human, plasma, oral, 100 mg, PART B; for AUC: AUC(0-τ); for CL/F: CLtot/F; for half-life: t1/2 λz
HIV viral load = assay: Viral load decline on repeated dosing, β-D-D4FC and competing nucleosides; assay type: in vivo; conditions: 50 mg QD, duration of dosing 10
[5] = 100 MG FED, coated tablet after high fat meal

With `Nc1nc(=O)n(C2C=CC(CO)O2)cc1F` [β-D-D4FC, β-D-2′,3′-Didehydro-2′,3′-dideoxy-5-fluorocytidine] the “target value of parent compound for >90% suppression” value ([1]; AZT, 3TC and co-resistant variants) was 5 µM, the IC90 ([1]; Human immunodeficiency virus 1, read-out: Average IC90 for AZT/3TC-R virus) was 5500 nM and the “activity against multi-drug resistant strains” value ([1]; Q151M or D69S insertions plus at least 5 additional mutations) was “only weakly active”. For the same compound, the “suppression of most mutant variants tested” value ([1]; at 5 μM in vitro) was ≥ 90%, the “clinically significant HIV mutant strains inhibited” value ([1]; including AZT and 3TC resistant variants) was “more than 80%” and the reduction in activity ([1]; recombinant viruses with as many as 10 mutations incl. M41L, M184V, D67N, L74V, K70R, T215Y or K219Q) was “less than 5 fold”. For the same compound, the “mean terminal half-life in plasma (t1/2)” value (clinical [2]; human, 50 mg) was 6.8±4.2 h to 15.6±12.4, the “mean t1/2” value (clinical [2]; human, 200 mg) was 11.3±1.6 hours to 14.3±3.1 and the oral bioavailability (clinical [2]; human, po) was “high oral bioavailability”. The “mean plasma half-life (t1/2)” value (clinical [2]; male, human) was 12.3 ± 4.0 h, the Cmax (clinical [2]; male, human, 10 mg) was ~1000 nM and the AUC (clinical [2]; male, human, 10 mg, AUC Actual) was 3.6 ± 0.5 µM·h. For the same compound, the AUC (clinical [2]; male, human, 10 mg, AUC(0-τ)) was 843 ng·h/mL, the AUC(0-inf) (clinical [2]; male, human, 10 mg) was 858 ng·h/mL and the CL renal (clinical [2]; male, human, 10 mg) was 136 mL/min. It also gave a CL/F (clinical [2]; male, human, 10 mg) of 196 mL/min, a Cmax (clinical [2]; male, human, 10 mg, Cmax) of 197 ng/mL and a Cmax (clinical [2]; male, human, 10 mg, Cmax Actual) of 870 ± 130 nM. The Cmax (clinical [2]; male, human, 10 mg, lowest Cmax, at which a maximal effect of viral inhibition was obtained) was 870 nM, the half-life (clinical [2]; male, human, 10 mg, t1/2 λz) was 4.2 h and the Tmax (clinical [2]; male, human, 10 mg, tmax) was 1 h. For the same compound, the AUC (clinical [2]; male, human, 25 mg, AUC Actual) was 8.1 ± 1.5 µM·h, the AUC (clinical [2]; male, human, 25 mg, AUC(0-τ)) was 1830 ng·h/mL and the AUC(0-inf) (clinical [2]; male, human, 25 mg) was 1840 ng·h/mL. The CL renal (clinical [2]; male, human, 25 mg) was 120 mL/min, the CL/F (clinical [2]; male, human, 25 mg) was 230 mL/min and the Cmax (clinical [2]; male, human, 25 mg, Cmax) was 406 ng/mL. The Cmax (clinical [2]; male, human, 25 mg, Cmax Actual) was 1800 ± 500 nM, the half-life (clinical [2]; male, human, 25 mg, t1/2 λz) was 4.49 h and the Tmax (clinical [2]; male, human, 25 mg, tmax) was 1.17 h. The “AUC(0-τ)” value (clinical [2]; male, human, 50 mg) was 3,196 ng · h/mL, the “AUC(0-∞)” value (clinical [2]; male, human, 50 mg) was 3,221 ng · h/mL and the CLr (clinical [2]; male, human, 50 mg) was 4.30 L/h. The CLtot/F (clinical [2]; male, human, 50 mg) was 17,492 mL/h, the Cmax (clinical [2]; male, human, 50 mg) was 572 ng/mL and the “t1/2 λz” value (clinical [2]; male, human, 50 mg) was 7.02 h. It also gave an AUC (clinical [2]; male, human, 50 mg, AUC Actual) of 27 ± 6.4 µM·h, an AUC (clinical [2]; male, human, 50 mg, AUC(0-τ)) of 3470 ng·h/mL and an AUC(0-inf) (clinical [2]; male, human, 50 mg) of 3500 ng·h/mL. The CL renal (clinical [2]; male, human, 50 mg) was 73.2 mL/min, the CL/F (clinical [2]; male, human, 50 mg) was 245 mL/min and the Cmax (clinical [2]; male, human, 50 mg, Cmax) was 668 ng/mL. It also gave a Cmax (clinical [2]; male, human, 50 mg, Cmax Actual) of 4800 ± 1300 nM, a Cmax (clinical [2]; male, human, 50 mg, mean Cmax) of 2500 nM and a half-life (clinical [2]; male, human, 50 mg, t1/2 λz) of 7.73 h. It also gave a Tmax (clinical [2]; male, human, 50 mg, tmax) of 1 h, an AUC (clinical [2]; male, human, 100 mg, AUC Actual) of 32.7 ± 6.8 µM·h and an AUC (clinical [2]; male, human, 100 mg, AUC(0-τ)) of 7010 ng·h/mL. It also gave an AUC(0-inf) (clinical [2]; male, human, 100 mg) of 7100 ng·h/mL, a CL renal (clinical [2]; male, human, 100 mg) of 124 mL/min and a CL/F (clinical [2]; male, human, 100 mg) of 242 mL/min. The Cmax (clinical [2]; male, human, 100 mg, Cmax) was 1120 ng/mL, the Cmax (clinical [2]; male, human, 100 mg, Cmax Actual) was 5000 ± 1200 nM and the half-life (clinical [2]; male, human, 100 mg, t1/2 λz) was 9.25 h. For the same compound, the Tmax (clinical [2]; male, human, 100 mg, tmax) was 2.92 h, the AUC (clinical [2]; male, human, 200 mg, AUC Actual) was 52.5 ± 9.2 µM·h and the AUC (clinical [2]; male, human, 200 mg, AUC(0-τ)) was 11200 ng·h/mL. The AUC(0-inf) (clinical [2]; male, human, 200 mg) was 11400 ng·h/mL, the CL renal (clinical [2]; male, human, 200 mg) was 125 mL/min and the CL/F (clinical [2]; male, human, 200 mg) was 301 mL/min. The Cmax (clinical [2]; male, human, 200 mg, Cmax) was 1750 ng/mL, the Cmax (clinical [2]; male, human, 200 mg, Cmax Actual) was 7700 ± 1600 nM and the Tmax (clinical [2]; male, human, 200 mg, mean Tmax) was 2.9 ± 1.6 h. The half-life (clinical [2]; male, human, 200 mg, t1/2 λz) was 10.9 h, the Tmax (clinical [2]; male, human, 200 mg, tmax) was 3.33 h and the Tmax (clinical [2]; male, human, mean Tmax) was 1.1 ± 0.2 h. The half-life (clinical [2]; male, human, mean plasma half-life (t1/2)) was 12.3 ± 4 h, the “AUC Projected” value (clinical [2]; male, human, po, 10 mg) was 5.0 µM·h and the Cmax (clinical [2]; male, human, po, 10 mg) was 630 nM. It also gave an AUC (clinical [2]; male, human, po, 10 mg, AUC) of 3.57 ± 0.55 µM·h, a Cmax (clinical [2]; male, human, po, 10 mg, Cmax) of 870 ± 130 nM and a half-life (clinical [2]; male, human, po, 10 mg, T ½) of 6.8 ± 4.2 h. For the same compound, the Tmax (clinical [2]; male, human, po, 10 mg, Tmax) was 1 h, the “AUC Projected” value (clinical [2]; male, human, po, 25 mg) was 12.5 µM·h and the Cmax (clinical [2]; male, human, po, 25 mg) was 1600 nM. For the same compound, the AUC (clinical [2]; male, human, po, 25 mg, AUC) was 8.12 ± 1.47 µM·h, the Cmax (clinical [2]; male, human, po, 25 mg, Cmax) was 1760 ± 480 nM and the half-life (clinical [2]; male, human, po, 25 mg, T ½) was 15.6 ± 12.4 h. The Tmax (clinical [2]; male, human, po, 25 mg, Tmax) was 1.4 ± 1.1 h, the AUC (clinical [2]; male, human, po, 50 mg) was 28.03 ± 4.51 µM·h and the “AUC Projected” value (clinical [2]; male, human, po, 50 mg) was 25 µM·h. For the same compound, the “T ½” value (clinical [2]; male, human, po, 50 mg) was 13.8 ± 2.4 h, the AUC (clinical [2]; male, human, po, 50 mg, AUC) was 25.9 ± 8.3 µM·h and the Cmax (clinical [2]; male, human, po, 50 mg, Cmax) was 4400 ± 1600 nM. The half-life (clinical [2]; male, human, po, 50 mg, T ½) was 14.3 ± 3.1 h, the Tmax (clinical [2]; male, human, po, 50 mg, Tmax) was 2 ± 0.8 h and the “AUC Projected” value (clinical [2]; male, human, po, 100 mg) was 50 µM·h. For the same compound, the Cmax (clinical [2]; male, human, po, 100 mg) was 6300 nM, the AUC (clinical [2]; male, human, po, 100 mg, AUC) was 32.7 ± 6.85 µM·h and the Cmax (clinical [2]; male, human, po, 100 mg, Cmax) was 4950 ± 1200 nM. The half-life (clinical [2]; male, human, po, 100 mg, T ½) was 11.3 ± 1.6 h, the Tmax (clinical [2]; male, human, po, 100 mg, Tmax) was 2.9 ± 1 h and the “AUC Projected” value (clinical [2]; male, human, po, 200 mg) was 100 µM·h. The Cmax (clinical [2]; male, human, po, 200 mg) was 12600 nM, the AUC (clinical [2]; male, human, po, 200 mg, AUC) was 52.5 ± 9.2 µM·h and the Cmax (clinical [2]; male, human, po, 200 mg, Cmax) was 7700 ± 1600 nM. For the same compound, the half-life (clinical [2]; male, human, po, 200 mg, T ½) was 12 ± 0.6 h, the Tmax (clinical [2]; male, human, po, 200 mg, Tmax) was 3.3 ± 1.6 h and the “time plasma levels remain above the median effective concentrations in human PBM cells” value (clinical [2]; male) was > 24 h. For the same compound, the Ki (wild type HIV-RT) was 100 nM, the half-life (clinical [3]) was 6 to 15 h and the EC90 (wild type HIV-1) was 900 nM and < 1000 nM. The “% Change in mitDNA” value (HepG2 cells; 1 μM) was 0%, the “% Change in rRNA” value (HepG2 cells; 1 μM) was 0% and the “% Change in Lactic Acid” value (HepG2 cells; 1 μM) was “+12%”. For the same compound, the “% Change in mitDNA” value (HepG2 cells; 10 μM) was −1.6%, the “% Change in rRNA” value (HepG2 cells; 10 μM) was 0% and the “% Change in Lactic Acid” value (HepG2 cells; 10 μM) was −2%. The “Cmax and AUC values in the fed regimen as fraction of the fasted regimen” value ([4]; 100 mg coated tablets, high fat meal) was “less than 1/10”, the AUC ([4]; 100 MG FASTED, coated tablet) was 6110 ng·h/mL and the AUC [4, 5] was 542 ng·h/mL. The AUC(0-inf) ([4]; 100 MG FASTED, coated tablet) was 6170 ng·h/mL, the AUC(0-inf) [4, 5] was 643 ng·h/mL and the CL/F ([4]; 100 MG FASTED, coated tablet) was 478 mL/min. It also gave a CL/F [4, 5] of 3380 mL/min, a Cmax ([4]; 100 MG FASTED, coated tablet) of 1160 ng/mL and a Cmax [4, 5] of 90 ng/mL. The half-life ([4]; 100 MG FASTED, coated tablet) was 8.61 h, the half-life [4, 5] was 4.38 h and the Tmax ([4]; 100 MG FASTED, coated tablet) was 1.83 h. For the same compound, the Tmax [4, 5] was 2.5 h and the “Viral Load Decline (log)” value (HIV viral load) was −1.67 log.
